Data from patent publication US20260167622A1, “PAN-KRAS DEGRADING AGENT, AND PREPARATION METHOD THEREFOR AND USE THEREOF” (LEADINGTAC PHARMACEUTICAL (SHAOXING) CO., LTD., priority 2022, published 2026).

Assays:
Format in all cases: cell-based
[1] = target: T1, KRAS G12V protein in SW900 cells (Homo sapiens, UniProt P01116, G12V); test: KRAS degradation assay (Western Blot) in SW900 cells; conditions: 24 h
T1 construct: endogenous in cells; host or cells: SW900
Text: (§1) Test Example 5: KRAS G12C, KRAS G12D, KRAS G12V, KRAS G13D, and KRAS WT (Expanded) Degradation Assays
(§2) The degradation effect of the compounds on KRAS was investigated on KRAS G12C mutant human non-small cell lung cancer cell NCI-H358, KRAS G12D mutant human metastatic pancreatic cancer cell AsPc-1, KRAS G12D mutant human lung cancer cell A427, KRAS G12V mutant human colorectal cancer cell SW620, KRAS G12V mutant human lung cancer cell SW900, KRAS G13D mutant human colorectal cancer epithelial cell DLD-1, and KRAS WT human gastric cancer cell MKN-1. The specific procedures were as follows: 0.95 mL of cells were seeded into each well of a 24-well cell culture plate to achieve a cell density of 5×10^5 cells/well; and the cell plate was incubated in an incubator at 37° C. with 5% CO2 overnight. Then 50 μL of the compound solution after dilution was added to each of the wells with the corresponding cells, so that the final concentration of the compound was in a range of 0.03-3000 nM. The final concentration of DMSO was 0.25%. After the compounds were added, the cell plate was incubated in an incubator at 37° C. with 5% CO2 for 24 h. The culture medium in the 24-well cell culture plate was then removed, and the plate was washed twice with 1×PBS (KeyGEN). 120 μL of RIPA (strong) lysis buffer (Beyotime) (supplemented with 1 mM phenylmethylsulfonyl fluoride, a protease inhibitor mixture (Beyotime), and a protease phosphatase inhibitor mixture (Beyotime)) was added to lyse adherent SW900 cells at the bottom of the cell culture plate. After the plate was left to stand on ice for 30 min, the protein lysate in each well was transferred to a 1.5 mL centrifuge tube and centrifuged at 15000 g for 20 min at 4° C. The cell lysate supernatants after centrifugation were cryopreserved in a refrigerator at −80° C. for later use.
(§3) After the samples of the cell lysate supernatants that had been prepared were thawed from the refrigerator at −80° C., the total protein concentrations of the cell lysates were determined using a BCA protein quantification kit (Tiangen). The total protein concentrations of the samples were then adjusted to 0.5 μg/μL with PBS and 5×SDS-PAGE protein loading buffer (Beyotime), and the samples were incubated in a water bath at 100° C. for 15 min. The samples were then incubated in an ice bath for 5 min and centrifuged at 14000 g for 1 min at 4° C., and the supernatants were mixed well as loading samples for the Western Blot assay. The samples were loaded into wells of a 10% precast gel (KeyGEN) with a loading volume of 10 μL (total protein: 5 μg), a sufficient Tris-MOPS-SDS running buffer (Adamas) was added, and then electrophoresis was performed at a constant voltage of 120 V for 55 min. After the electrophoresis, the proteins on the gel were transferred to PVDF membranes at a constant current of 250 mA for 55 min. After the membrane transfer, the PVDF membranes were incubated in 1× Quick Block blocking buffer (Beyotime)at room temperature for 30 min. After the blocking, the PVDF membranes were separately incubated at 4° C. overnight with the KRAS antibody (Abcam) diluted in a ratio of 1:1000 and the β-actin antibody (Abcam) diluted in a ratio of 1:2000 in 5% BSA as the diluent, and then washed with 1×TBST buffer (2.4 g of Tris, 8.8 g of NaCl, 1.5 mL of Tween 20, with pH adjusted to 7.4, with the volume brought to 1 L) 3 times for 10 min/time. The membranes were incubated with a secondary antibody (Abcam) diluted in 5% BSA at room temperature for 2 h, and then washed with 1×TBST buffer 3 times for 10 min/time. Finally, the membranes were incubated with Clarity Western ECL Substrate (BIO-RAD) for 5 min for luminescence and color development, and a ChemiScope 6200 Touch chemiluminescence imaging system (Clinx) was used for color development and protein mapping. Gray value analysis of the protein maps was performed using the chemiluminescence analysis software (Clinx). […]

[2] = test system: KRAS WT human gastric cancer cell MKN1; test: 3D cell proliferation inhibition assay, MKN1; conditions: MKN-1, 168 h, 3D culture, 7 days, CTG
Text: (§4) Test Example 6: 3D Cell Proliferation Inhibition Assay
(§5) The inhibitory effects of the compounds on 3D cell proliferation were investigated on KRAS G12C mutant human non-small cell lung cancer cell NCI-H358, KRAS G12D mutant human lung cancer cell A427, KRAS G12D mutant human gastric cancer cell AGS, KRAS G12D mutant human metastatic pancreatic cancer cell AsPc-1, KRAS G12V mutant human lung squamous carcinoma cell SW900, KRAS G12V mutant human colorectal cancer cell SW620, KRAS G13D mutant human colorectal cancer epithelial cell DLD-1, and KRAS WT human gastric cancer cell MKN1. The specific procedures were as follows:
(§6) 10 μL of each compound solution diluted in a gradient was added to corresponding wells of a 96-well low-adsorption microplate (PerkinElmer), so that the final concentrations of the test compounds in the reaction system were in a range of 10000-0.026 nM. The final concentration of DMSO was 0.2%. Then 90 µL of cells were correspondingly seeded into each well to achieve a cell density of 5×10^2 cells/well (the cell density of SW900 was 5×10^3 cells/well, and the cell density of MKN1 was 1×10^3 cells/well). In addition to test wells for the test compounds, both a DMSO control well and a medium control well were set, with the DMSO control well containing DMSO and cells and the medium well containing only a medium. After the sample loading, the 96-well low-adsorption microplate was incubated in an incubator at 37° C. with […] for 7 days. After 7 days, the microplate was taken out, and 100 μL of CTG reagent (Promega) was added to each well. The plate was incubated at room temperature for 60 m and read on a microplate reader EnVision by the chemiluminescence program. The inhibition rates of the compounds at each concentration were calculated using the formula for the percentage inhibition of cell proliferation: inhibition rate 00=(mean value of DMSO control group−single concentration reading value of compound)/(mean value of DMSO control group−mean value of medium control group)×100. Then non-linear curve fillings for logarithmic concentration-inhibition rate were performed by GraphPad Prism 8, and the IC50 values of the compounds were obtained (Table 6).

[3] = test system: KRAS G12D mutant human metastatic pancreatic cancer cell AsPc-1; test: 3D cell proliferation inhibition assay, AsPc-1; conditions: ASPC1, 168 h, 3D culture, 7 days, CTG
Text: as §4, §5, §6

[4] = test system: KRAS G12V mutant human lung squamous carcinoma cell SW900; test: 3D cell proliferation inhibition assay, SW900; conditions: SW900, 168 h, 3D culture, 7 days, CTG
Text: as §4, §5, §6

[5] = test system: KRAS G12C mutant human non-small cell lung cancer cell NCI-H358; test: 3D cell proliferation inhibition assay, NCI-H358; conditions: NCI-H358, 168 h, 3D culture, 7 days, CTG
Text: as §4, §5, §6

[6] = test system: KRAS G12V mutant human colorectal cancer cell SW620; test: 3D cell proliferation inhibition assay, SW620; conditions: SW-620, 168 h, 3D culture, 7 days, CTG
Text: as §4, §5, §6

[7] = test system: KRAS G13D mutant human colorectal cancer epithelial cell DLD-1; test: 3D cell proliferation inhibition assay, DLD-1; conditions: DLD-1, 168 h, 3D culture, 7 days, CTG
Text: as §4, §5, §6

[8] = target: T2, KRAS G12V protein in SW620 cells (Homo sapiens, UniProt P01116, G12V); test: KRAS degradation assay (Western Blot) in SW620 cells; conditions: for DC50: 24 h; for Dmax: SW-620, 24 h
T2 construct: endogenous in cells; host or cells: SW620
Text: as §1, §2, §3

T2 sequence (P01116 1-188 isoform P01116-2 G12V): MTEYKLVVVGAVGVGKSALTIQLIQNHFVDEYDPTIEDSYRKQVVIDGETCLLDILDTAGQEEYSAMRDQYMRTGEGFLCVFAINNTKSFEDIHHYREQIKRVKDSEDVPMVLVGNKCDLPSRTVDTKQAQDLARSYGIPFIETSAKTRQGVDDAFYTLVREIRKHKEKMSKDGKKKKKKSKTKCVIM
T1 sequence (P01116 1-188 isoform P01116-2 G12V): as above

| DC50 [1] [nM] | Dmax [1] [%] | IC50 [2] [nM] | IC50 [3] [nM] | IC50 [4] [nM] | IC50 [5] [nM] | IC50 [6] [nM] | IC50 [7] [nM] | DC50 [8] [nM] | Dmax [8] [%] | SMILES |
| --- | --- | --- | --- | --- | --- | --- | --- | --- | --- | --- |
| ≤ 50 | 80 to 100 | 50 to 100 | 50 to 100 | ≤ 50 |  |  |  |  |  | C#Cc1c(F)ccc2cc(O)cc(-c3ncc4c(N5CCC[C@@](C)(O)C5)nc(OCC5(CN6CCN(CCC#CC7CCN(C(=O)c8ccc(Cl)c(N9CCC(=O)NC9=O)c8)CC7)CC6)CC5)nc4c3F)c12 [Example 43, (R)-1-(2-chloro-5-(4-(4-(4-((1-(((7-(8-ethynyl-7-fluoro-3-hydroxynaphthalen-1-yl)-8-fluoro-4-(3-hydroxy-3-methylpiperidin-1-yl)pyrido[4,3-d]pyrimidin-2-yl)oxy)methyl)cyclopropyl)methyl)piperazin-1-yl)but-1-yn-1-yl)piperidine-1-carbonyl)phenyl)dihydropyrimidine-2,4(1H,3H)-dione] |
|  |  | 102 | 176 |  | 32.9 | 22 | 54.3 | 11.8 | 95.2 | C#Cc1c(F)ccc2cc(O)cc(-c3ncc4c(N5CCCC(F)(F)C5)nc(OCC5(CN6CCN(CC7CCC8(CC7)CCN(C(=O)c7ccc(OC)c(N9CCC(=O)NC9=O)c7)CC8)CC6)CC5)nc4c3F)c12 [Example 72, 1-(5-(9-((4-((1-(((4-(3,3-difluoropiperidin-1-yl)-7-(8-ethynyl-7-fluoro-3-hydroxynaphthalen-1-yl)-8-fluoropyrido[4,3-d]pyrimidin-2-yl)oxy)methyl)cyclopropyl)methyl)piperazin-1-yl)methyl)-3-azaspiro[5.5]undecane-3-carbonyl)-2-methoxyphenyl)dihydropyrimidine-2,4(1H,3H)-dione] |
|  |  | ≤ 50 | 100 to 500 | ≤ 50 |  |  |  |  |  | C#Cc1c(F)ccc2cc(O)cc(-c3ncc4c(N5CCCCCC5)nc(OCC5(CN6CCN(CC7CCC8(CC7)CCN(C(=O)c7ccc(C)c(N9CCC(=O)NC9=O)c7)CC8)CC6)CC5)nc4c3F)c12 [Example 37, 1-(5-(9-((4-((1-(((4-(azepan-1-yl)-7-(8-ethynyl-7-fluoro-3-hydroxynaphthalen-1-yl)-8-fluoropyrido[4,3-d]pyrimidin-2-yl)oxy)methyl)cyclopropyl)methyl)piperazin-1-yl)methyl)-3-azaspiro[5.5]undecane-3-carbonyl)-2-methylphenyl)dihydropyrimidine-2,4(1H,3H)-dione] |
| ≤ 50 | 80 to 100 | ≤ 50 | 50 to 100 | 100 to 500 |  |  |  |  |  | C#Cc1cccc2cc(O)cc(-c3ncc4c(N5CCC[C@@](C)(O)C5)nc(OCC5(CN6CCC(CCOCC7CCN(C(=O)c8ccc(OC)c(N9CCC(=O)NC9=O)c8)CC7)CC6)CC5)nc4c3F)c12 [Example 38, (R)-1-(5-(4-((2-(1-((1-(((7-(8-ethynyl-3-hydroxynaphthalen-1-yl)-8-fluoro-4-(3-hydroxy-3-methylpiperidin-1-yl)pyrido[4,3-d]pyrimidin-2-yl)oxy)methyl)cyclopropyl)methyl)piperidin-4-yl)ethoxy)methyl)piperidine-1-carbonyl)-2-methoxyphenyl)dihydropyrimidine-2,4(1H,3H)-dione] |
|  |  |  | 68.2 |  | 18.9 | 13.3 | 39.9 | 18.9 | 99.3 | C#Cc1c(F)ccc2cc(O)cc(-c3ccc4c(N5CCC[C@@](C)(O)C5)nc(OC[C@H](C)CN5CCN(CC6CCC7(CC6)CCN(C(=O)c6ccc(C)c(N8CCC(=O)NC8=O)c6)CC7)CC5)nc4c3F)c12 [Example 61, 1-(5-(9-((4-((R)-3-((7-(8-ethynyl-7-fluoro-3-hydroxynaphthalen-1-yl)-8-fluoro-4-((R)-3-hydroxy-3-methylpiperidin-1-yl)quinazolin-2-yl)oxy)-2-methylpropyl)piperazin-1-yl)methyl)-3-azaspiro[5.5]undecane-3-carbonyl)-2-methylphenyl)dihydropyrimidine-2,4(1H,3H)-dione] |
|  |  | 5.23 | 21.2 |  | 6.63 | 7.01 | 9.98 | 14.2 | 89.2 | C#Cc1c(F)ccc2cc(O)cc(-c3ncc4c(N5CCC[C@@](C)(O)C5)nc(OCC(C)CN5CCN(CC6CCC7(CC6)CCN(C(=O)c6ccc(OC)c(N8CCC(=O)NC8=O)c6)CC7)CC5)nc4c3F)c12 (stereo partly drawn) [Example 86, 1-(5-(9-((4-(3-((7-(8-ethynyl-7-fluoro-3-hydroxynaphthalen-1-yl)-8-fluoro-4-((R)-3-hydroxy-3-methylpiperidin-1-yl)pyrido[4,3-d]pyrimidin-2-yl)oxy)-2-methylpropyl)piperazin-1-yl)methyl)-3-azaspiro[5.5]undecane-3-carbonyl)-2-methoxyphenyl)dihydropyrimidine-2,4(1H,3H)-dione] |
